Results reported in patent US20150110845A1, “ANTIMICROBIAL POLYNUCLEOTIDE-TEMPLATED METAL NANOCLUSTER” (priority 2013, published 2015).
Converted amounts (≈) assume the structure as drawn.

Experiments:
[1] = tested on: multidrug-resistant bacteria P. aeruginosa; assay: Inhibition of P. aeruginosa growth in solution culture; type: cell-based, Pseudomonas aeruginosa; conditions: overnight at 37° C., shaking 250 rpm; AgNO3 180 μM
Description: Other than DNA-based surface chemistry, the size-dependent controlled-release of Ag^+ from the DNA-templated AgNCs (sub-2nm) were also compared with the citrate-capped silver nanoparticles (AgNPs, 15 nm) and AgNO3 (free flow of Ag^+) against bacterial growth under the same experimental conditions. AgNPs were synthesized based on the Turkevich method whereby an aqueous solution of trisodium citrate was brought to boil, followed by addition of AgNO3 aq solution (310 μM). The reaction was then boiled till a yellow solution was obtained. For the AgNO3, 180 μM of AgNO3 was used for this example.

human A549 cells = assay: WST-1 cytotoxicity assay; type: cell-based; conditions: compared at 44 μM, 4 hours at 37° C.
Description: The cytotoxicity of the silver-containing species were tested against human A549 cells (from the lungs) using the WST-1 Assay (manufactured by Roche). The silver-bearing species were diluted to different extents and allowed to incubate with the human cells at 37° C. for 4 hours. In the presence of dead cells, the enzymatic assay gave a pink coloured solution (as shown by the box in FIG. 4A), while the living cells gave a brown solution (cells that are outside the box region in FIG. 4A).
The percentage of human dead cells can be quantified spectroscopically by measuring the optical density of the solution at a wavelength of 440 nm. To examine the antimicrobial potency and cytotoxicity of silver in different formulations (AgNPs, DNA-templated AgNCs and AgNO3), the percentage of bacteria cells inhibited (y-axis representing the antibacterial potency) was plotted against the percentage of human A549 cells killed (x-axis representing the eukaryotic cytotoxicity) in FIG. 4B. Here, the relative percentages of human A549 cells killed were compared at a concentration of 44 μM for all silver-containing species.

P. aeruginosa = conditions: J. Antimicrob. Chemother., 1999, 43, 345-349; cited from earlier work
B. cenocepacia = conditions: J. Antimicrob. Chemother., 2002, 50, 265-269; cited from earlier work

SMILES	P. aeruginosa growth inhibited [1]	cytotoxicity to human A549 cells (human A549 cells)	MIC50 (P. aeruginosa) [µM]	MIC50 (B. cenocepacia) [µM]
O=[N+]([O-])[O-].[Ag+] [AgNO3]	up to 97%	high toxicity	–	–
O=C(O)c1cn(C2CC2)c2cc(N3CCNCC3)c(F)cc2c1=O [ciprofloxacin]	–	–	0.27 (≈ 0.0895 µg/mL)	0.36 (≈ 0.119 µg/mL)
